Results as given in article PMC4908596, “Fusing simulation and experiment: The effect of mutations on the structure and activity of the influenza fusion peptide” (Scientific Reports, 2016).
Ends that are not written are not given here.

Details: pH 5

| Sequence | Kp (lipid/water partition coefficient) |
| --- | --- |
| GLFGAIAGFIEGGWTGMIDGWYGS [WT, reference compound] | 10455 |
| GLFGAIAGFIEAAWTGMIDGWYGS [G12AG13A] | 442 |
| GLFAAIAAFIEGGWTAMIDAWYGS [G4AG8AG16AG20A] | 333 |
| GLFGAIAGFIEGGATGMIDGWYGS [W14A] | 6265 |
